The values below come from US20240252527A9, “NUCLEOSIDE DRUGS FOR THE TREATMENT OR PREVENTION OF CORONAVIRUS INFECTION AND THEIR USES” (Miracure Biotechnology Limited, priority 2022, published 2024).

One assay deals with OC43. The assay is described as follows: OC43 Huh7 CPE assay (cytopathic experiment). Type of assay: cell-based, coronavirus OC43 (HCoV-OC43). The conditions noted are these: Betacoronavirus 1, Huh-7, 168 h, Huh7 cells, OC43 virus, 7 days, Cell Titer Glo. Summed up: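 Cells seeded overnight, then two-fold diluted compound added with virus; viability read by CellTiter-Glo after 3 days (229E, MRC5 cells) or 7 days (OC43, Huh7 cells). EC50/EC90 from % inhibition of virus-induced CPE; CC50 from parallel uninfected cytotoxicity runs, by nonlinear fitting.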

Another assay concerns 229E. The assay is described as follows: 229E MRC5 CPE assay (cytopathic experiment). It counts as cell-based, coronavirus 229E (HCoV-229E). Particulars: Human coronavirus 229E, MRC5, 72 h.

As for `CCC(CC)COC(=O)[C@H](C)N[P@](=O)(OC[C@H]1O[C@@](C#N)(c2ccc3c(N)ncnn23)[C@H](O)[C@@H]1O)Oc1ccccc1` [Remdesivir, reference compound], the EC50 in the assay with OC43 (read-out: OC43 Huh7 CPE assay (μM) EC50) and in the assay with 229E (read-out: 229E MRC5 CPE assay (μM) EC50) was less than 0.1 µM throughout. Besides, the EC90 – broadly, the point of the concentration-response curve where the effect stands at 90% – was less than 0.1 µM in the assay on OC43 (read-out: OC43 Huh7 CPE assay (μM) EC90) and 0.1 to 0.5 µM with 229E (read-out: 229E MRC5 CPE assay (μM) EC90).
